Data: patent US20220370416A1, “COMPOUNDS AND METHODS FOR TARGETED DEGRADATION OF KRAS” (Arvinas Operations, Inc., priority 2020, published 2022)

Legend:
HiBit-KRAS^G12C [1] = target: T1, HiBit-KRAS^G12C (Homo sapiens, UniProt P01116, G12C); experiment: HiBit degradation assay in SW1573 HiBit-KRas^G12C cells; format: cell-based; parameters: expressed in transfected cells; host or cells: SW1573 (clone E6), modified pcDNA3.1 vector, TK promoter; conditions: 0.5% DMSO, 24 hours; for DC50: read-out: KRas^G12C-HiBiT (SW1573; 0.5% DMSO) IC50***
T1 sequence (P01116 1-186 isoform P01116-2 G12C limits assumed): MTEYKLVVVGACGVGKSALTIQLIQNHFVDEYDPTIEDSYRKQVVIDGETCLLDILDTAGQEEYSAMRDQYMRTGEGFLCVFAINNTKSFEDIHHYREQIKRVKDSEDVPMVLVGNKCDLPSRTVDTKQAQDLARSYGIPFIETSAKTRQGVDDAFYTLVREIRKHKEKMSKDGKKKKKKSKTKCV
Method in brief: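 HiBit-KRAS G12C degradation was measured after a 24 h compound exposure (titrated 10 μM–20 nM) in engineered SW1573 cells. Lytic HiBit luminescence, expressed relative to DMSO controls, yielded DC50 and Dmax from 4-parameter fits. Concentrations causing ≥50% loss in alamar blue viability were omitted as cytotoxic.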

HiBit-KRAS^G12C [2] = target: T1, HiBit-KRAS^G12C; experiment: HiBit degradation assay in MiaPaCa-2 HiBit-KRas^G12C cells; format: cell-based; conditions: 0.5% DMSO, 24 hours; for Dmax: maximum degradation; for DC50: read-out: KRas^G12C-HiBiT (MiaPaCa; 0.5% DMSO) IC50
Method in brief: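 DC50 and Dmax come from 4-parameter fits of DMSO-normalized HiBit luminescence after 24 hours' exposure at 37° C to 10 μM–20 nM compound in 0.1% or 0.5% DMSO. Cells: MiaPaCa-2 carrying one endogenously HiBit-tagged KRAS^G12C allele; concentrations causing ≥50% […] viability loss (alamar blue) excluded.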

[3] = MiaPaCa-2 HiBit-KRas^G12C cells
[4] = SW1573, SW1573 HiBit-KRas^G12C, read-out: KRas^G12C-HiBiT (SW1573; 0.5% DMSO) Dmax**
[5] = MIA PaCa-2, MiaPaCa-2 HiBit-KRas^G12C cells, read-out: KRas^G12C-HiBiT (MiaPaCa; 0.5% DMSO) DMax

SMILES	Dmax (HiBit-KRAS^G12C [1]; SW1573, read-out: KRas^G12C-HiBiT (SW1573; 0.5% DMSO) Dmax**, SW1573 HiBit-KRas^G12C)	DC50 (HiBit-KRAS^G12C [1]; SW1573 HiBit-KRas^G12C)	Dmax (HiBit-KRAS^G12C [2]; MIA PaCa-2, read-out: KRas^G12C-HiBiT (MiaPaCa; 0.5% DMSO) DMax, MiaPaCa-2 HiBit-KRas^G12C cells)	DC50 (HiBit-KRAS^G12C [2]; [3])	Dmax (HiBit-KRAS^G12C [1]; [4])	Dmax (HiBit-KRAS^G12C [2]; [5])
C=CC(=O)N1CCN(c2nc(OCCN3CCC(CN(C)CC(=O)N[C@H](C(=O)N4C[C@H](O)C[C@H]4C(=O)N[C@@H](C)c4ccc(-c5scnc5C)cc4)C(C)(C)C)CC3)nc3c(F)c(-c4cc(O)cc5ccccc45)c(Cl)cc23)C[C@@H]1CC#N [Compound 148, (2S,4R)-1-[(2S)-2-{2-[({1-[2-({6-chloro-4-[(3S)-3-(cyanomethyl)-4-(prop-2-enoyl)piperazin-1-yl]-8-fluoro-7-(3-hydroxynaphthalen-1-yl)quinazolin-2-yl}oxy)ethyl]piperidin-4-yl}methyl)(methyl)amino]acetamido}-3,3-dimethylbutanoyl]-4-hydroxy-N-[(1S)-1-[4-(4-methyl-1,3-thiazol-5-yl)phenyl]ethyl]pyrrolidine-2-carboxamide]	35 to 70%	100 to 1000 nM	35 to 70%	100 to 1000 nM		
C=CC(=O)N1CCN(c2nc(OCCN3CCC(C)(COCC(=O)N[C@H](C(=O)N4C[C@H](O)C[C@H]4C(=O)N[C@@H](C)c4ccc(-c5scnc5C)cc4)C(C)(C)C)CC3)nc3c(F)c(-c4cc(O)cc5ccccc45)c(Cl)cc23)C[C@@H]1CC#N [Compound 149, (2S,4R)-1-[(2S)-2-[2-({1-[2-({6-chloro-4-[(3S)-3-(cyanomethyl)-4-(prop-2-enoyl)piperazin-1-yl]-8-fluoro-7-(3-hydroxynaphthalen-1-yl)quinazolin-2-yl}oxy)ethyl]-4-methylpiperidin-4-yl}methoxy)acetamido]-3,3-dimethylbutanoyl]-4-hydroxy-N-[(1S)-1-[4-(4-methyl-1,3-thiazol-5-yl)phenyl]ethyl]pyrrolidine-2-carboxamide]		100 to 1000 nM		100 to 1000 nM	> 70%	> 70%
C=CC(=O)N1CCN(c2nc(OCCN3CCC(F)(COCC(=O)N[C@H](C(=O)N4C[C@H](O)C[C@H]4C(=O)N[C@@H](C)c4ccc(-c5scnc5C)cc4)C(C)(C)C)CC3)nc3c(F)c(-c4cc(O)cc5ccccc45)c(Cl)cc23)C[C@@H]1CC#N [Compound 150, (2S,4R)-1-[(2S)-2-[2-({1-[2-({6-chloro-4-[(3S)-3-(cyanomethyl)-4-(prop-2-enoyl)piperazin-1-yl]-8-fluoro-7-(3-hydroxynaphthalen-1-yl)quinazolin-2-yl}oxy)ethyl]-4-fluoropiperidin-4-yl}methoxy)acctamido]-3,3-dimethylbutanoyl]-4-hydroxy-N-[(1S)-1-[4-(4-methyl-1,3-thiazol-5-yl)phenyl]ethyl]pyrrolidine-2-carboxamide]		100 to 1000 nM		> 1000 nM	> 70%	> 70%
C=CC(=O)N1CCN(c2nc(O[C@H](C)CN3CCC(COCC(=O)N[C@H](C(=O)N4C[C@H](O)C[C@H]4C(=O)N[C@@H](C)c4ccc(-c5scnc5C)cc4)C(C)(C)C)CC3)nc3c(F)c(-c4cc(O)cc5ccccc45)c(Cl)cc23)C[C@@H]1CC#N [Compound 152, (2S,4R)-1-[(2S)-2-[2-({1-[(2R)-2-({6-chloro-4-[(3S)-3-(cyanomethyl)-4-(prop-2-enoyl)piperazin-1-yl]-8-fluoro-7-(3-hydroxynaphthalen-1-yl)quinazolin-2-yl}oxy)propyl]piperidin-4-yl}methoxy)acetamido]-3,3-dimethylbutanoyl]-4-hydroxy-N-[(1S)-1-[4-(4-methyl-1,3-thiazol-5-yl)phenyl]ethyl]pyrrolidine-2-carboxamide]		100 to 1000 nM		100 to 1000 nM	> 70%	35 to 70%
C=CC(=O)N1CCN(c2nc(O[C@H](C)CN3CCC(COc4cc([C@H](C(=O)N5C[C@H](O)C[C@H]5C(=O)N[C@@H](C)c5ccc(-c6scnc6C)cc5)C(C)C)on4)CC3)nc3c(F)c(-c4cc(O)cc5ccccc45)c(Cl)cc23)C[C@@H]1CC#N [Compound 153, (2S,4R)-1-[(2R)-2-[3-({1-[(2R)-2-({6-chloro-4-[(3S)-3-(cyanomethyl)-4-(prop-2-enoyl)piperazin-1-yl]-8-fluoro-7-(3-hydroxynaphthalen-1-yl)quinazolin-2-yl}oxy)propyl]piperidin-4-yl}methoxy)-1,2-oxazol-5-yl]-3-methylbutanoyl]-4-hydroxy-N-[(1S)-1-[4-(4-methyl-1,3-thiazol-5-yl)phenyl]ethyl]pyrrolidine-2-carboxamide]		100 to 1000 nM		100 to 1000 nM	> 70%	> 70%
C=C(F)C(=O)N1CCN(c2nc(O[C@H](C)CN3CCC(COc4cc([C@H](C(=O)N5C[C@H](O)C[C@H]5C(=O)N[C@@H](C)c5ccc(-c6scnc6C)cc5)C(C)C)on4)CC3)nc3c(F)c(-c4cc(O)cc5ccccc45)c(Cl)cc23)C[C@@H]1CC#N [Compound 155, (2S,4R)-1-[(2R)-2-[3-({1-[(2R)-2-({6-chloro-4-[(3S)-3-(cyanomethyl)-4-(2-fluoroprop-2-enoyl)piperazin-1-yl]-8-fluoro-7-(3-hydroxynaphthalen-1-yl)quinazolin-2-yl}oxy)propyl]piperidin-4-yl}methoxy)-1,2-oxazol-5-yl]-3-methylbutanoyl]-4-hydroxy-N-[(1S)-1-[4-(4-methyl-1,3-thiazol-5-yl)phenyl]ethyl]pyrrolidine-2-carboxamide]		100 to 1000 nM		100 to 1000 nM	< 35%	< 35%
C=C(F)C(=O)N1CCN(c2nc(OCCN3CCC(COc4cc([C@H](C(=O)N5C[C@H](O)C[C@H]5C(=O)N[C@@H](C)c5ccc(-c6ccnn6C)cc5)C(C)C)on4)CC3)nc3c(F)c(-c4cc(O)cc5ccccc45)c(Cl)cc23)C[C@@H]1CC#N [Compound 156, (2S,4R)-1-[(2R)-2-[3-({1-[2-({6-chloro-4-[(3S)-3-(cyanomethyl)-4-(2-fluoroprop-2-enoyl)piperazin-1-yl]-8-fluoro-7-(3-hydroxynaphthalen-1-yl)quinazolin-2-yl}oxy)ethyl]piperidin-4-yl}methoxy)-1,2-oxazol-5-yl]-3-methylbutanoyl]-4-hydroxy-N-[(1S)-1-[4-(1-methyl-1H-pyrazol-5-yl)phenyl]ethyl]pyrrolidine-2-carboxamide]		< 100 nM		100 to 1000 nM		
C=CC(=O)N1CCN(c2nc(OCCN3CCC(COc4cc([C@H](C(=O)N5C[C@H](O)C[C@H]5C(=O)N[C@@H](C)c5ccc(-c6ccnn6C)cc5)C(C)C)on4)CC3)nc3c(F)c(-c4cc(O)cc5ccccc45)c(Cl)cc23)C[C@@H]1CC#N [Compound 157, (2S,4R)-1-[(2R)-2-[3-({1-[2-({6-chloro-4-[(3S)-3-(cyanomethyl)-4-(prop-2-enoyl)piperazin-1-yl]-8-fluoro-7-(3-hydroxynaphthalen-1-yl)quinazolin-2-yl}oxy)ethyl]piperidin-4-yl}methoxy)-1,2-oxazol-5-yl]-3-methylbutanoyl]-4-hydroxy-N-[(1S)-1-[4-(1-methyl-1H-pyrazol-5-yl)phenyl]ethyl]pyrrolidine-2-carboxamide]		< 100 nM		100 to 1000 nM		
C=C(F)C(=O)N1CCN(c2nc(OCCN3CCC(COc4cc([C@@H](C(=O)N5C[C@H](O)C[C@H]5C(=O)N[C@@H](C)c5ccc(-c6ccnn6C)cc5)C(C)C)on4)CC3)nc3c(F)c(-c4cc(O)cc5ccccc45)c(Cl)cc23)C[C@@H]1CC#N [Compound 158, (2S,4R)-1-[(2S)-2-[3-({1-[2-({6-chloro-4-[(3S)-3-(cyanomethyl)-4-(2-fluoroprop-2-enoyl)piperazin-1-yl]-8-fluoro-7-(3-hydroxynaphthalen-1-yl)quinazolin-2-yl}oxy)ethyl]piperidin-4-yl}methoxy)-1,2-oxazol-5-yl]-3-methylbutanoyl]-4-hydroxy-N-[(1S)-1-[4-(1-methyl-1H-pyrazol-5-yl)phenyl]ethyl]pyrrolidine-2-carboxamide]		> 1000 nM		> 1000 nM		
C=CC(=O)N1CCN(c2nc(OCCN3CCC(COc4cc([C@@H](C(=O)N5C[C@H](O)C[C@H]5C(=O)N[C@@H](C)c5ccc(-c6ccnn6C)cc5)C(C)C)on4)CC3)nc3c(F)c(-c4cc(O)cc5ccccc45)c(Cl)cc23)C[C@@H]1CC#N [Compound 159, (2S,4R)-1-[(2S)-2-[3-({1-[2-({6-chloro-4-[(3S)-3-(cyanomethyl)-4-(prop-2-enoyl)piperazin-1-yl]-8-fluoro-7-(3-hydroxynaphthalen-1-yl)quinazolin-2-yl}oxy)ethyl]piperidin-4-yl}methoxy)-1,2-oxazol-5-yl]-3-methylbutanoyl]-4-hydroxy-N-[(1S)-1-[4-(1-methyl-1H-pyrazol-5-yl)phenyl]ethyl]pyrrolidine-2-carboxamide]		> 1000 nM		> 1000 nM		
